# Assay results as given in patent US20230414701A1, “COMPOSITION FOR PREVENTING, AMELIORATING, OR TREATING COGNITIVE DYSFUNCTION DISEASE, COMPRISING PEPTIDE HAVING SYNAPTIC PLASTICITY CONTROL FUNCTION” (UIF (University Industry Foundation), Yonsei University, priority 2020, published 2023).
# How the values were obtained:
# [1] = test system: hippocampal tissue section from APP/PS1 Alzheimer's disease animal model; assay: fEPSP amplitude (long-term potentiation) in hippocampal tissue sections; parameters: species or system mouse; details: 1 μM, 1 hour and 40 minutes, compared to control peptide material; FIG. 6
# Method: Specifically, the brain was extracted from an APP/PS1 Alzheimer's disease animal model, and then transferred to a 4° C. sucrose-artificial cerebrospinal fluid solution (195.5 sucrose, 2.5 KC1, 1 NaH2PO4, 32.5 NaHCO3, 11 glucose, 2 NaPyruvate, 1 NaL-ascorbate, 5 MgSO4, 0.5 CaCl2 (95% O2/5% CO2). Subsequently, brain tissue was cut into coronal sections (400 μm) using a microtome, a hippocampal tissue section was transferred to a 35° C. artificial cerebrospinal fluid solution (128.5 NaCl2, 2.5 KCl, 1 NaH2PO4, 21.7 NaHCO3, 11 glucose, 2 NaPyruvate, 1 NaL-ascorbate, 5 MgSO4, 1 CaCl2 (95% O2/5% CO2)) and incubated for 30 minutes to restore the function of the tissue. Subsequently, an experiment was performed for 1 hour and 40 minutes while flowing MIC-1 according to the present invention at a concentration of 1 μM from the beginning until the end of the experiment using gravity, and then the amplitude of field excitatory postsynaptic potential (fEPSP) was measured.
# ICR mouse models = assay: Y-maze behavioral experiment, scopolamine-induced memory loss; assay type: in vivo; details: 20 mpK intravenous twice for one week, then scopolamine 1 mpK i.p. 30 minutes before test; 7-week-old male ICR mice; FIG. 8
# Method: In Example 6-1, it was confirmed that MIC-1 can enhance the expression level of the PSD-95 protein known to be associated with cognitive function, and based on this, a behavioral experiment for mouse models was designed. Specifically, among ICR mouse models, 7-week-old male mouse models were used and divided into a control and two experimental groups (scopolamine-treated group and group administered MIC-1 and then treated with scopolamine) to perform the experiment.
# MIC-1 was administered into a mouse twice via intravenous administration at 20 mpK for one week. […] Therefore, to induce such memory loss, 30 minutes before the Y-maze behavioral experiment, scopolamine was intraperitoneally administered at 1 mpK to the experimental groups, resulting in memory deterioration.
# CCNY protein = CCNY protein (Homo sapiens, UniProt Q8ND76); assay: ELISA of binding capacity of peptides to CCNY; details: treated at 10, 100 or 1000 μg/mL; CCNY immobilized on plate; FIG. 5
# Method: To examine which of MIC-1 and cyclo MIC-1 according to the present invention easily binds to CCNY, the present inventors conducted an experiment using ELISA. To this end, CCNY was immobilized on a plate, MIC-1 and cyclo MIC-1 were treated at 10, 100 or 1000μg/mL, biotin was bound to the MIC-1 and cyclo MIC-1, and then the optical density of HRP was measured after treating streptavidin-HRP.
# PSD-95 protein = assay: Western blotting of PSD-95 protein expression in Aβ42-treated cells; assay type: cell-based; details: FIG. 7
# Method: To identify what role MIC-1 plays in improving the cognitive function of MIC-1 according to the present invention, the present inventors, as shown in Example 5, an experiment was performed as follows. Specifically, the change in expression level of the PSD-95 protein known to play an important role in cognitive function was analyzed through Western blotting using a 12% acrylamide gel. For example, it is known that, when cells are treated with Aβ42, compared to normal cells, the amount of PSD-95 protein decreases and cognitive function decreases, resulting in deterioration of memory.
# Chain of CCNY protein (Q8ND76 whole entry, species assumed): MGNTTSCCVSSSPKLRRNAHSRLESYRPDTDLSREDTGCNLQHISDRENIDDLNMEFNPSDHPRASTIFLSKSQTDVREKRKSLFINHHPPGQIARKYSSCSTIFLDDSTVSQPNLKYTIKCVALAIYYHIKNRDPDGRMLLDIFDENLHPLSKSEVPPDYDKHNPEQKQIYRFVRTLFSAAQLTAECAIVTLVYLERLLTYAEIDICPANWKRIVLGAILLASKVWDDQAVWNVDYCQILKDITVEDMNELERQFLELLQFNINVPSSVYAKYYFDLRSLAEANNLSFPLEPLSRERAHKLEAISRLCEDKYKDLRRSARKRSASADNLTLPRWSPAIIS
substance,measurement,setting,value
MIC-1: Peptide of SEQ ID NO: 1 (PFTAIRE sequence of Cdk14) in which both termini are modified (Ac-PFTAIRE-NH2),fEPSP amplitude,[1],the fEPSP amplitude increases
same,alternation (memory) in Y-maze,ICR mouse models,the memory is improved up to the control level
same,"binding to the CCNY protein (ELISA, optical density of HRP)",CCNY protein,can remarkably bind to the CCNY protein
same,level of the PSD-95 protein,PSD-95 protein,the level of the PSD-95 protein is increased
